Structures are written as SMILES. Values after ≈ are worked out from the molar mass of the structure shown. Active and inactive are the calls of the source.

Experimental findings from ChEMBL document CHEMBL5055664, “A Novel Anticancer Stem Cell Compound Derived from Pleuromutilin Induced Necroptosis of Melanoma Cells” (J Med Chem, 2021) are described below.

Data set [1] relates to B16-F10. Briefly: Anticancer activity against mouse B16-F10 cancer stem cells assessed as CD44+CD24+ marker cells at 5 uM measured after 30 hrs by FITC/APC staining based flow cytometry (reference value: […]). Format: functional.
The test system of data set [2] is A-375. Briefly: Anticancer activity against human A-375 cancer stem cells assessed as CD44+CD133+ marker cells at 1.25 uM measured after 30 hrs by FITC/APC staining based flow cytometry (reference value: […]). The class given is functional. (In general: Flow cytometry measures light scatter and fluorescence of single cells or particles in a stream.)
Data set [3] deals with A-375. Briefly: Anticancer activity against human A-375 cancer stem cells assessed as CD44+CD133+ marker cells at […] measured after 30 hrs by FITC/APC staining based flow cytometry (reference value: […]). Format: functional. To be noted: dose 2.5 µM.
Data set [4] concerns B16-F10. In words: Anticancer activity against mouse B16-F10 cancer stem cells assessed as CD44+CD24+ marker cells at […] measured after 30 hrs by FITC/APC staining based flow cytometry (reference value: […]). Format: functional. The note with it: dose 2.5 µM.
For data set [5], the system named is A-375. Briefly: Anticancer activity against human A-375 cancer stem cells assessed as CD44+CD133+ marker cells at 5 uM measured after 30 hrs by FITC/APC staining based flow cytometry (reference value: […]). Format: functional.
Data set [6] has as its system B16-F10. In words: Anticancer activity against mouse B16-F10 cancer stem cells assessed as CD44+CD24+ marker cells at 1.25 uM measured after 30 hrs by FITC/APC staining based flow cytometry (reference value: […]). The class given is functional.
The next data set has as its system 4T1. Briefly: Cytotoxicity against mouse 4T1 cells assessed as inhibition of cell growth measured after 72 hrs by MTT assay. The class given is functional, cell-based. To be noted: 4T1, 72 h.
The test system of another data set is CT26. In words: cells. The note with it: Mus musculus, CT26, 72 h.
Data set [7] deals with B16-F10. In words: Cytotoxicity against mouse B16-F10 cells assessed as inhibition of cell growth measured after 72 hrs by MTT assay. Format: functional, cell-based. To be noted: B16-F10, 72 h.
The test system of the next data set is HCT-116. Briefly: cells. To be noted: Homo sapiens, HCT-116, 72 h.
Another data set has as its system Kasumi 1. In words: cells. To be noted: Homo sapiens, Kasumi 1, 72 h.
Data set [8] concerns A-375. Briefly: Cytotoxicity against human A-375 cells assessed as inhibition of cell growth measured after 72 hrs by MTT assay. The class given is functional, cell-based. To be noted: A-375, 72 h. Background: Tetrazolium assays rely on reduction of a dye to a coloured formazan, in cell work by metabolically active cells.
Data set [9] relates to B16-F10. Briefly: Induction of secondary necrosis in mouse B16-F10 cells at 0.5 to […] measured after 48 hrs by AnnexinV-FITC/propidium iodide staining based flow cytometry. To be noted: dose 0.5-2.5 µM. The class given is functional, cell-based.
In data set [10] the test system is B16-F10. Briefly: Induction of morphological changes in mouse B16-F10 cells assessed as formation of apoptotic bodies at 0.5 to […] measured after 48 hrs by AnnexinV-FITC/propidium iodide staining based flow cytometry. The note with it: dose 0.5-2.5 µM. The class given is functional, cell-based.
Data set [11] is described as follows: MRT (0 to t) in Sprague-Dawley rat at 20 mg/kg, iv by LC-MS/MS analysis. Format: ADME, organism-based. To be noted: in vivo.
Data set [12] can be described thus: Half life in Sprague-Dawley rat at 50 mg/kg, po by LC-MS/MS analysis. The note with it: in vivo. Format: ADME, organism-based.
Data set [13] can be described thus: Cmax in Sprague-Dawley rat at 20 mg/kg, iv by LC-MS/MS analysis. To be noted: in vivo. The class given is ADME, organism-based. On the set-up: dose 20 mg/kg, route iv.
The nature of data set [14]: Tmax in Sprague-Dawley rat at 50 mg/kg, po by LC-MS/MS analysis. Format: ADME, organism-based. To be noted: in vivo.
Data set [15] is described as follows: Cmax in Sprague-Dawley rat at 50 mg/kg, po by LC-MS/MS analysis. Format: ADME, organism-based. On the set-up: dose 50 mg/kg, route po. The note with it: in vivo.
A short description of data set [16]: Half life in Sprague-Dawley rat at 20 mg/kg, iv by LC-MS/MS analysis. The class given is ADME, organism-based. To be noted: in vivo.
Data set [17] in a line: Oral bioavailability in Sprague-Dawley rat at 50 mg/kg by LC-MS/MS analysis. The class given is ADME, organism-based. The note with it: in vivo.
The nature of data set [18]: Tmax in Sprague-Dawley rat at 20 mg/kg, iv by LC-MS/MS analysis. The class given is ADME, organism-based. The note with it: in vivo.
Data set [19] is described as follows: MRT (0 to t) in Sprague-Dawley rat at 50 mg/kg, po by LC-MS/MS analysis. The class given is ADME, organism-based. The note with it: in vivo.
For a further data set, the system named is Staphylococcus aureus. Briefly: Antimicrobial activity against Staphylococcus aureus assessed as bacterial growth inhibition. Format: functional.
The test system of a further data set is Escherichia coli. In words: Antimicrobial activity against Escherichia coli assessed as bacterial growth inhibition. Format: functional.
The subject of another data set is Bacillus subtilis. In words: Antimicrobial activity against Bacillus subtilis assessed as bacterial growth inhibition. Format: functional.

Turning to `CC(=O)O[C@H]1C(=O)[C@@]2(C)[C@H]([C@H](OC(=O)c3ccccc3)[C@]3(O)C[C@H](OC(=O)[C@H](O)[C@@H](NC(=O)c4ccccc4)c4ccccc4)C(C)=C1C3(C)C)[C@]1(OC(C)=O)CO[C@@H]1C[C@@H]2O` [PACLITAXEL], the Activity with B16-F10 [1] stood at 24%; in the data set with A-375 [2] it was 18.1%; in the data set with A-375 [3], 19.3%; in the data set on B16-F10 [4], 12.5%; in the data set on A-375 [5], 20%; in the data set with B16-F10 [6] it was 11.3%.
In general, IC50 refers to the concentration needed to halve the response being measured. Consider `C=C[C@]1(C)C[C@@H](O)[C@]2(C)[C@H](C)CC[C@]3(CC(=C)C(=O)[C@H]32)[C@@H](C)[C@@H]1OC(=O)Cc1ccc(F)cc1`, for which the IC50 is over 10 µM in the data set with 4T1; over 10 µM in the data set on CT26; 2.31 µM in the data set with B16-F10 [7]; 9.37 µM with HCT-116; 2.45 µM in the data set with Kasumi 1; 5.73 µM in the data set on A-375 [8].
On to `COc1cccc2c1C(=O)c1c(O)c3c(c(O)c1C2=O)C[C@@](O)(C(=O)CO)C[C@@H]3O[C@H]1C[C@H](N)[C@H](O)[C@H](C)O1`, for which the outcome in the data set on B16-F10 [9] and in the data set with B16-F10 [10] was Active.
In general, MRT last refers to a mean duration of stay, worked out from the concentration-time curve. By half-life is commonly meant the time needed for the level to fall by half in the phase considered. Usually Cmax stands for the peak of the concentration-time curve. What is called Tmax is the time from dosing to the highest level. Usually bioavailability stands for the share of a dose that reaches the circulation, judged against a reference dose that is usually intravenous. Read a low bioavailability as poor availability. Turning to `C=C[C@]1(C)C[C@@H](OC(=O)c2ccc(C(F)(F)F)cn2)[C@]2(C)[C@H](C)CC[C@]3(CC(=C)C(=O)[C@H]32)[C@@H](C)[C@@H]1OC(=O)c1ccc(C(F)(F)F)cn1`, the MRT last in data set [11] was 2.91 h; in data set [19] it was 4.71 h. For the same molecule, the half-life in data set [12] was 6.54 h; in data set [16], 1.33 h. Further, the figures for the Cmax in data set [13] and in data set [15] were 3400 ng/mL and 3650 ng/mL, respectively. Also, the Tmax was determined as 2.67 h in data set [14] and 4.98 min in data set [18]. Besides, the bioavailability in [17] turned out to be 88%.
As a reminder, the MIC is the smallest concentration in the dilution series that meets the test's criterion for growth inhibition. As for `C=C[C@]1(C)C[C@@H](OC(=O)CO)[C@]2(C)[C@H](C)CC[C@]3(CCC(=O)[C@H]32)[C@@H](C)[C@@H]1O` [PLEUROMULIN], the IC50 with 4T1, in the data set with CT26, in the data set with B16-F10 [7], in the data set with HCT-116, in the data set with Kasumi 1 and with A-375 [8] was over 100 µM each time. Also, the values for the MIC with Staphylococcus aureus, in the data set on Escherichia coli and in the data set on Bacillus subtilis were 10 µg/mL (≈ 26.4 µM), 50 µg/mL (≈ 132 µM) and 100 µg/mL (≈ 264 µM), respectively.
